Values joined by “and” are separate entries in the source; they are usually repeats but may differ in a detail not shown here. Equal values may be shown once.
Experiments:
[1] = pH of quencher stock and of RBC mixture; format: physicochemical; conditions: for pH of stock quencher: room temperature
Experimental: The effect of various quenching conditions on the pH of a red blood cell composition was determined for various treatment conditions. The quencher solutions were prepared at a concentration of 600 mM in 8% dextrose monohydrate. […] Glutathione was assessed at 2 mM (acidic) or 20 mM (2 eq. of base). […] The pH of the quencher solution, either unmodified or neutralized, was measured using a standard Epoxy Calomel electrode (Beckman Instruments) at room temperature. […] The samples were mixed and the pH at room temperature was measured using the same electrode as described above.
In these, the appropriate amount of 600 mM stock was added, mixed with an appropriate volume of 8% dextrose to provide the same volume addition to each RBC sample where in one study, with varied glutathione concentrations, the pH was measured after adding glutathione and after adding PIC-1. […] Similar samples were also assessed for the inactivation of S. epidermidis. […] For gel card analysis, after incubation, the RBC were washed in BBS and were diluted in BBS to a final hematocrit of 4%. A 25 μL aliquot of each was mixed with 15 μL of rabbit polyclonal anti-acridine sera diluted either 1:4 or 1:100 in BBS and the mixture was incubated at 37° C. for 30 minutes. The cells were subsequently washed with 1.5 mL BBS. After washing was complete, the cells were mixed with goat anti-rabbit Fab′2 fragment anti H+L chains (1:4 dilution in PBS) and incubated at 37° C. for 30 minutes.

Yersinia enterocolitica = assay: Inactivation of Yersinia enterocolitica in RBC (colony count); format: cell-based
[2] = test system: Human Leukocyte Genomic DNA; assay: PIC-1 adduct frequency on leukocyte genomic DNA (14C-labelled PIC-1); format: biochemical; conditions: 20 h RT
Description: The quenching methods of the invention can also be compared to existing methods by determining the level of modification of nucleic acids in a sample. Typically, a red blood cell composition may contain leukocytes, and the nucleic acid from the leukocytes can be isolated. A pathogen inactivating compound having a radioactive isotope that, upon reaction of the compound with nucleic acid, will remain bound to the nucleic acid. This can be used to assess the amount of compound reacted with the nucleic acid for a variety of quenching methods, and provides a measure that can be directly correlated to expected leukocyte inactivation. The number of adducts formed per 1,000 nucleic acid base pairs can be used as a model to assess the expected impact of the various methods on pathogen inactivation. Alternatively, a suitable amount of a pathogen can be added to a red blood cell composition and the nucleic acid of the pathogen can be isolated after treatment. However, in this case the sample needs to be leukoreduced such that the levels of any residual leukocytes will not interfere with the measurement of pathogen nucleic acid.
The PIC-1 used included radiolabeled PIC-1, where the reactive group included a ^14C label (ViTrax, Inc., Placentia, Calif.). The specific activity of the PIC-1 used was […]. All samples were incubated at room temperature for 20 hours. After the incubation, 20 mL of RBC were diluted with a 20 mL volume of PBS and 20 mL of the mixture were added to each of two tubes containing 10 mL of Ficoll. The suspension was then centrifuged at 400×g for 30 minutes. The white blood cell portion was separated and the centrifuge step repeated after adding another 20 mL of PBS. The pellets obtained were combined and the combined pellet was resuspended in 5 mL Lysis buffer (100 mM NaCl, 10 mM Tris HCl, 25 mM EDTA, 5% SDS, 0.1 mg/mL Proteinase K, Sigma, St. Louis, Mo.) and was incubated at 50° C. for at least two hours. The resulting solution was then extracted with 5 mL of phenol:chloroform:isoamyl alcohol […], followed by 5 mL of chloroform, and then 5 mL of ether. The genomic DNA was isolated in the aqueous layer and precipitated by addition of 0.5 mL of 3 M NaOAc, 10 mL of 100% ethanol, followed by incubation of the final mixture in a dry ice/ethanol bath. The DNA was isolated by centrifugation at 6,000×g for 10′. The supernatant was removed, and the pellet air-dried and resuspended in 1 mL of TE buffer (100 mM Tris HCl, 1 mM EDTA, pH=7.4) The amount of DNA isolated was quantified by UV absorption at 260 nm and the amount of PIC-1 adducts was quantified by liquid scintillation counting (Perkin Elmer-Wallac, Winspectral 1414 Liquid Scintillation Counter, Shelton, Conn.) of the solution of DNA, using the specific activity of the PIC-1 to assess the molar ratio of PIC-1 to DNA base pairs. […] Glutathione is indicated as “GSH” and cysteine as “Cys” in the table, as well as elsewhere herein. The determination of adduct frequency was used as a surrogate measurement for the inactivation of leukocytes. It is known that under the standard pathogen inactivation conditions, leukocytes are inactivated to the level of detection of a limiting dilution assay, which corresponds to 5.3 log of inactivation. The mechanism of inactivation is through formation of adducts on the genomic nucleic acids. […] Similar studies could be done with a suitable pathogen using leukoreduced red blood cells in order to assess the binding to the pathogen nucleic acid under various conditions.

leukocytes = conditions: standard pathogen inactivation conditions; cited from earlier work
[3] = 0.2 mM PIC-1, 2 mM acidic glutathione (0 eq base), no delay
[4] = 20 mM cysteine+1 eq base, then 0.2 mM PIC-1 after 10 min
[5] = 20 mM cysteine+2 eq base, then 0.2 mM PIC-1 after 10 min
[6] = 20 mM glutathione+2 eq base, then 0.2 mM PIC-1 after 10 min
[7] = 20 mM GSH neutralized with 2 eq, 0.2 mM PIC-1 10 min later
[8] = 20 mM each neut. GSH (2 eq) and Cys (1 eq), 0.2 mM PIC-1 10 min later

## N[C@@H](CCC(=O)N[C@@H](CS)C(=O)NCC(=O)O)C(=O)O [glutathione, γ-L-glutamyl-L-cysteinyl-glycine]
[1]; 600 mM in 8% dextrose + 1 eq. base
  pH of stock quencher: 6.1
[1]; 600 mM in 8% dextrose + 2 eq. base
  pH of stock quencher: 9.5 and 9.2
[1]; 600 mM in 8% dextrose, no base added
  pH of stock quencher: 2.82 and 3.0
[1]; RBC + 2 mM acidic glutathione
  pH of mixture Post quencher: 6.7
[1]; RBC + 2 mM acidic glutathione + 0.2 mM PIC-1
  pH of mixture Final: 6.7
[1]; RBC + 2 mM glutathione + 1 eq. base
  pH of mixture Post quencher: 6.8
[1]; RBC + 2 mM glutathione + 1 eq. base + 0.2 mM PIC-1
  pH of mixture Final: 6.8
[1]; RBC + 2 mM glutathione + 2 eq. base
  pH of mixture Post quencher: 6.8
[1]; RBC + 2 mM glutathione + 2 eq. base + 0.2 mM PIC-1
  pH of mixture Final: 6.8
[1]; RBC + 5 mM acidic glutathione
  pH of mixture Post quencher: 6.6
[1]; RBC + 5 mM acidic glutathione + 0.2 mM PIC-1
  pH of mixture Final: 6.6
[1]; RBC + 5 mM glutathione + 1 eq. base
  pH of mixture Post quencher: 6.7
[1]; RBC + 5 mM glutathione + 1 eq. base + 0.2 mM PIC-1
  pH of mixture Final: 6.7
[1]; RBC + 5 mM glutathione + 2 eq. base
  pH of mixture Post quencher: 6.9
[1]; RBC + 5 mM glutathione + 2 eq. base + 0.2 mM PIC-1
  pH of mixture Final: 6.9
[1]; RBC + 10 mM acidic glutathione
  pH of mixture Post quencher: 6.4
[1]; RBC + 10 mM acidic glutathione + 0.2 mM PIC-1
  pH of mixture Final: 6.4
[1]; RBC + 10 mM glutathione + 1 eq. base
  pH of mixture Post quencher: 6.7
[1]; RBC + 10 mM glutathione + 1 eq. base + 0.2 mM PIC-1
  pH of mixture Final: 6.7
[1]; RBC + 10 mM glutathione + 2 eq. base
  pH of mixture Post quencher: 7.2
[1]; RBC + 10 mM glutathione + 2 eq. base + 0.2 mM PIC-1
  pH of mixture Final: 7.0
[1]; RBC + 20 mM acidic glutathione
  pH of mixture Post quencher: 6.1
[1]; RBC + 20 mM acidic glutathione + 0.2 mM PIC-1
  pH of mixture Final: 6.1
[1]; RBC + 20 mM glutathione + 1 eq. base
  pH of mixture Post quencher: 6.7
[1]; RBC + 20 mM glutathione + 1 eq. base + 0.2 mM PIC-1
  pH of mixture Final: 6.7
[1]; RBC + 20 mM glutathione + 2 eq. base
  pH of mixture Post quencher: 7.4
[1]; RBC + 20 mM glutathione + 2 eq. base + 0.2 mM PIC-1
  pH of mixture Final: 7.2
[1]; Table 10: RBC + 2 mM acidic quencher + 0.2 mM PIC-1
  pH of final mixture: 6.9
[1]; Table 10: RBC + 20 mM quencher + 2 eq. base + 0.2 mM PIC-1
  pH of final mixture: 7.7
[1]; glutathione solution neutralized with 2 equivalents of sodium hydroxide
  pH of solution: approximately 9.5
[1]; solution of the protonated glutathione
  pH of solution: approximately 3

## O=C(CCNc1c2ccccc2nc2ccccc12)OCCN(CCCl)CCCl [PIC-1]
Yersinia enterocolitica; [3]
  Log Y. enterocolitica reduction: 8.49 Log
  Log Y. enterocolitica titer: 0.00 Log
Yersinia enterocolitica; [4]
  Log Y. enterocolitica reduction: 4.04 Log
  Log Y. enterocolitica titer: 4.45 Log
Yersinia enterocolitica; [5]
  Log Y. enterocolitica reduction: 5.79 Log
  Log Y. enterocolitica titer: 2.70 Log
Yersinia enterocolitica; [6]
  Log Y. enterocolitica reduction: 5.95 Log
  Log Y. enterocolitica titer: 2.54 Log
Yersinia enterocolitica; 20 mM neutralized cysteine or neutralized glutathione, 0.2 mM PIC-1
  reduction of log inactivation relative to the standard condition: about 2.5 log
[2]; 0.2 mM PIC-1, 2 mM acidic GSH
  Adduct frequency (average number of base pairs between adducts): 44 and 29
  Adducts per kbp: 23 and 34
[2]; 0.2 mM PIC-1, no quencher
  Adduct frequency (average number of base pairs between adducts): 36 and 35
  Adducts per kbp: 28
[2]; [7]
  Adduct frequency (average number of base pairs between adducts): 27 and 28
  Adducts per kbp: 37 and 36
[2]; [8]
  Adduct frequency (average number of base pairs between adducts): 33
  Adducts per kbp: 30
leukocytes
  leukocyte inactivation (level of detection of limiting dilution assay): 5.3 log

From patent US7655392B2, “Quenching methods for red blood cell inactivation process” (priority 2004, dated 2010)
